Data reported in article doi:10.1101/2023.09.11.557219v1 (biorxiv, 2023).
pKi: −log10 of the molar value.

Target: SARS-CoV-2 M^pro (main protease, 3CL^pro, NSP5) (Severe acute respiratory syndrome coronavirus 2, UniProt P0DTD1)
Assay: fluorogenic substrate cleavage, Morrison fit
Assay type: biochemical
Details: HEPES 25 mM pH 7.0; fluorogenic substrate SAE0180

Question: With `O=C(NCCN1CCCC1)N1c2ccccc2Sc2ccccc21` [compound 3, 4080] as the compound, how does the pKi read?
Answer: 4.10
